From patent US20210369720A1, “SYNERGISTIC COMPOSITION HAVING NEUROPROTECTIVE PROPERTIES AND METHODS OF USE THEREOF” (Rutgers, The State University of New Jersey, priority 2018, published 2021)

Legend:
[1] = system: phosphorylated α-synuclein (p-α-Syn); experiment: Immunohistochemical staining of p-α-Syn, Syn^Tg mice; format: in vivo; details: EHT 12 mg/kg/day and/or caffeine 50 mg/kg/day until six months of age, vs untreated Syn^Tg mice
Description: Thy1-α-synuclein transgenic mice (Syn^Tg) on BDF1 background overexpressing human wild-type α-synuclein under the control of the Thy1 promoter were maintained by mating heterozygous transgenic females with WT BDF1 males (Rockenstein E, et al. (2002) Differential neuropathological alterations in transgenic mice expressing alpha-synuclein from the platelet-derived growth factor and Thy-1 promoters. J Neurosci Res 68(5):568-578). BDF1 mice (mixed C57BL/6-DBA/2) were generated every three months by mating female C57BL/6 (The Jackson Laboratory) and male DBA/2 mice (Charles River). Experiments were performed with male transgenic mice and their WT littermates. […] Wild-type littermates received regular water and control chow. […] At two months of age, mice were inoculated with α-Syn PFF unilaterally in the striatum. These treatments continued throughout the experiment until animals were sacrificed. Mice were weighed and their food and water intake was quantified weekly. […]
(§1) Vectastain elite ABC kit (Vector Laboratories, Burlingame, Calif.) and 3,3′-diaminobenzidine (Sigma-Aldrich) were used for amplifying and color development. […] For other stains, the whole microscopic field was analyzed. For p-α-Syn stains in the cortex, four matching regions in each of two sections per animal were counted.

[2] = system: GFAP; experiment: Immunohistochemical staining of GFAP in the cortex, Syn^Tg mice; format: in vivo; details: EHT 12 mg/kg/day and/or caffeine 50 mg/kg/day until six months of age
Description: Neuroinflammation is one of the neuropathological features of PD and models of α-synucleinopathy including Syn^Tg mice (Lee K W, et al. (2011) Enhanced phosphatase activity attenuates alpha-synucleinopathy in a mouse model. J Neurosci 31(19):6963-6971).
Thy1-α-synuclein transgenic mice (Syn^Tg) on BDF1 background overexpressing human wild-type α-synuclein under the control of the Thy1 promoter were maintained by mating heterozygous transgenic females with WT BDF1 males (Rockenstein E, et al. (2002) Differential neuropathological alterations in transgenic mice expressing alpha-synuclein from the platelet-derived growth factor and Thy-1 promoters. J Neurosci Res 68(5):568-578). BDF1 mice (mixed C57BL/6-DBA/2) were generated every three months by mating female C57BL/6 (The Jackson Laboratory) and male DBA/2 mice (Charles River). Experiments were performed with male transgenic mice and their WT littermates. […] Wild-type littermates received regular water and control chow. […] Mice were weighed and their food and water intake was quantified weekly. […]
as §1

[3] = system: phosphorylated α-synuclein (p-α-Syn); experiment: Immunohistochemical staining of p-α-Syn, α-Syn PFF inoculated WT mice; format: in vivo; details: EHT 12 mg/kg/day and/or caffeine 50 mg/kg/day
Description: Thy1-α-synuclein transgenic mice (Syn^Tg) on BDF1 background overexpressing human wild-type α-synuclein under the control of the Thy1 promoter were maintained by mating heterozygous transgenic females with WT BDF1 males (Rockenstein E, et al. (2002) Differential neuropathological alterations in transgenic mice expressing alpha-synuclein from the platelet-derived growth factor and Thy-1 promoters. J Neurosci Res 68(5):568-578). BDF1 mice (mixed C57BL/6-DBA/2) were generated every three months by mating female C57BL/6 (The Jackson Laboratory) and male DBA/2 mice (Charles River). Experiments were performed with male transgenic mice and their WT littermates. […] Wild-type littermates received regular water and control chow. […] At two months of age, mice were inoculated with α-Syn PFF unilaterally in the striatum. These treatments continued throughout the experiment until animals were sacrificed. Mice were weighed and their food and water intake was quantified weekly. Animals were housed 2-5/cage in an AAALAC approved facility in a temperature- and humidity-controlled environment under a 12-hour light/dark cycle and were maintained on a diet of lab chow and water ad libitum. All animal procedures were approved by the Rutgers-Robert Wood Johnson Medical School Institutional Animal Care and Use Committee and were performed according to the National Institutes of Health Guide for the Care and Use of Laboratory Animals.
α-Syn PFF solution was sonicated at 60% amplitude 30 times (0.5 sec on, 0.5 sec off). During the stereotactic surgery, two month old WT C57BL/6 mice were anesthetized by Ketamine/xylazine (90/4.5 mg/kg, i.p., Ketaset from Zoetis, and Anased from Akorn) and positioned in a digital stereotaxic apparatus (Stoelting, Wood Dale, Ill.). A midline sagittal incision was made in the scalp, and a hole was drilled in the skull over the right striatum according to the coordinates below. All injections were made using a Hamilton neuros syringe equipped with a 33 gauge needle and attached to a Quintessential Stereotaxic Injector (Stoelting, Wood Dale, Ill.). A total of 5∝g/2.5 ul of α-Syn PFF was infused in the dorsal striatum (+0.2 mm relative to Bregma, +2.0 mm from midline, +2.6 mm beneath the dura) at a delivery rate of 0.2∝l/min (61). The needle was kept in place for 5 min following the infusion to prevent reflux before withdrawing.
Immunohistochemical analyses were performed as described previously (Lee et al., 2011; 2012). Mice were perfused transcardially with PBS, and brains were removed and post-fixed in 10% formalin at 4° C. overnight. Fixed brains were then sectioned coronally in 30 am thickness using a cryostat and collected as sets of slices with the same interval. Free-floating sections were blocked by 1% BSA and 0.2% Triton X100 in PBS. Sections were then incubated with primary antibody overnight at 4° C. and biotinylated secondary antibody for 1 hour at room temperature.
Vectastain elite ABC kit (Vector Laboratories, Burlingame, Calif.) and 3,3′-diaminobenzidine (Sigma-Aldrich) were used for amplifying and color development. Images were captured by Nikon Eclipse 55i. Staining intensity and phosphorylated α-synuclein (p-α-Syn) aggregate counts were obtained by Image Pro Plus. Intensity calibration was set to the level of a blank area in each image. HSI (hue, saturation and intensity) was used for the color selection with the standard parameters of H: 0-30, S: 0-255 and I: 0-160. […]

[4] = system: PP2A; experiment: Western blot of PP2A methylation in SH-SY5Y cells challenged with α-Syn PFF; format: cell-based, Human; details: SH-SY5Y cells challenged with mouse α-Syn PFF for 7 days; caffeine and/or EHT added to the medium
Method: (§2) Human neuroblastoma SH-SY5Y cells were cultured in DMEM-F12 with 10% FBS. At 50% confluency, cells were treated with 1 gg/ml mouse α-Syn PFF in DMEM-F12 with 1% FBS for 7 days. Medium was refreshed every 3 days. Cell harvesting was done with 2% SDS in PBS supplemented with protease inhibitor (Millipore) and phosphatase inhibitor (Sigma-Aldrich). Lysates were sonicated and boiled at 95° C. for 5 minutes. Protein concentration was determined by bicinchonic acid (BCA) method (Pierce), equal amount of protein was separated on 5-20% SDS-PAGE gel (Genescript) and transferred to nitrocellulose or PVDF membrane (Biorad). Following transfer, membranes were blocked for 1 hour at room temperature in blocking buffer (Li-Cor) or 5% (w/v) BSA/TBS-Tween 0.1% (v/v). Primary antibodies were diluted in blocking buffer or 5% (w/v) BSA/TBS-Tween 0.1% (v/v) and incubated with the membranes at 4° C. overnight. Membranes were washed three times in TBS-Tween and incubated in diluted IRDye 800CW or HRP conjugated secondary antibody for 1 hour at room temperature. Following washing, membranes were scanned by Li-Cor Odyssey CLx infrared imaging system or treated with the Western Lightning ECL-plus reagents (PerkinElmer) and exposed to autoradiography films (LabScientific).

[5] = system: p-α-Syn; experiment: Western blot of p-α-Syn in SH-SY5Y cells challenged with α-Syn PFF; format: cell-based, Human; details: SH-SY5Y cells challenged with mouse α-Syn PFF for 7 days; caffeine and/or EHT added to the medium
Method: as §2

[6] = vs untreated α-Syn PFF inoculated mice

SMILES: CCCCCCCCCCCCCCCCCCCC(=O)NCCc1c[nH]c2ccc(O)cc12 [EHT, eicosanoyl-5-hydroxytryptamide]
- number of p-α-Syn immunoreactive cells, hippocampus (FIG. 2B) [1]: reduced p-α-Syn positive cells
- astrocytic proliferation (GFAP) in the cortex [2]: partially but insignificantly attenuated
- p-α-Syn immunoreactivity in the ipsilateral nigra [3]: less abundant
- p-α-Syn in the contralateral striatum [3, 6]: partially but insignificantly reduced
- p-α-Syn in the ipsilateral striatum [3, 6]: partially but insignificantly reduced
- demethylated PP2A levels [4]: partially reversed this trend
- methyl- to demethyl-PP2A ratio [4]: not individually
- methylated PP2A levels [4]: partially reversed this trend
- p-α-Syn levels [5]: reduced it partially
